Source: patent EP0372889A1, “Doxorubicin solutions” (Bristol-Myers Squibb Company, priority 1988, dated 1990)
Structures can show the parent of a compound that is named as a salt. Where two headings read alike, the source gives them in different places.

Experiments:
[1] = type: physicochemical
Source text: It is also necessary for optimum stability of the solutions, especially at elevated temperatures which may be encountered at some time during the life of the product, e.g. during shipping, to utilize an antioxidant. We have tested a number of antioxidants including α-tocopherol, tert-butylhydroquinone (TBHQ), sodium formaldehyde bisulfite, butylated hydroxy anisole (BHA), butylated hydroxy toluene (BHT), sodium bisulfite and propyl gallate. […] This finding was disclosed and claimed in our EP-A-88111434.2 and in co-pending U.S. application Serial Number 246,602 filed September 20, 1988 and incorporated by reference herein in their entirety. […] Generally, an amount of sodium acetone bisulfite is employed in the range of about 0.1 to 20 mg/ml with about 2 mg/ml being most preferred.
Despite reports of potency losses of doxorubicin HCl solutions via photolytic degradation and adsorption to container walls, we have not noted any significant loss of potency due to container adsorption or sensitivity to normal room light with our solutions. Glass vials may conveniently be used as the container.
As an example of a stable non-aqueous solution of doxorubicin, 20 mg/ml of doxorubicin hydrochloride, 0.2 mg/ml citric acid (anhydrous), 2.0 mg/ml of sodium acetone bisulfite and a solvent medium consisting of deaerated propylene glycol/water (90:10 v/v) are added to a Type 1 flint vial, the vial is purged with nitrogen and then sealed with a suitable teflon-coated stopper. […] Substantially equivalent results are obtained when 1,2-dihydroxybutane and 1,3-dihydroxypropane solvent systems are used.

[2] = Solubility of doxorubicin HCl in non-aqueous solvents; type: physicochemical; settings: for solubility: organic solvent or mixture
Procedure: Doxorubicin HCl at room temperature has a solubility of less than 5 mg/ml in propylene glycol, 1,2-dihydroxybutane and 1,3-dihydroxypropane. […] Solubility of doxorubicin HCl can be increased to about 20 mg/ml in the above-mentioned solvents by addition of 5-10% (v/v) water.

[3] = cited from earlier work

With CC(C)(C)c1cc(O)ccc1O [tert-butylhydroquinone] the “stabilization of doxorubicin solutions by antioxidant” value (“stabilization” for short) ([1]; elevated temperatures as well as room temperature (25°C) or below) was “resulted in the desired stability”.
In the case of O=S(=O)(O)CO [sodium formaldehyde bisulfite], the “stabilization” value [1] is reported as “resulted in the desired stability”.
In the case of COc1cccc2c1C(=O)c1c(O)c3c(c(O)c1C2=O)C[C@@](O)(C(=O)CO)C[C@@H]3O[C@H]1C[C@H](N)[C@H](O)[C@H](C)O1 [Doxorubicin HCl, doxorubicin hydrochloride], the potency retained ([1]; 20 mg/ml, 0.2 mg/ml citric acid, 2.0 mg/ml sodium acetone bisulfite, propylene glycol/water (90:10 v/v), nitrogen purged, 2 weeks at 40°C, 20160 min) is reported as 97.2%, the potency retained ([1]; same solution, 4 weeks at 40°C, 40320 min) is reported as 93.4% and the potency retained ([1]; same solution, 12 weeks at 40°C, 120960 min) is reported as 88.2%. For the same molecule, the “acceptable shelf-life (≦10% potency loss)” value ([1]; same solution, 37°C) was “at least four”, the “acceptable shelf-life (≦10% potency loss)” value ([1]; same solution, room temperature) was “at least 18 months” and the “chemical stability of solutions” value ([2]; glycerol formal, 2-pyrrolidinone and 1-methyl-2-pyrrolidinone) was “chemically unstable”. The solubility ([2]; glycerol formal, pyrrolidinones, glycerol formal, 2-pyrrolidinone and 1-methyl-2-pyrrolidinone, read-out: solution concentration produced) was ≥ 5000 µg/mL, the solubility ([2]; glycols with 5-10% water, propylene glycol, 1,2-dihydroxybutane, 1,3-dihydroxypropane with addition of 5-10% (v/v) water, read-out: Solubility) was ~20000 µg/mL and the solubility ([2]; propylene glycol, butanediol, propanediol, room temperature, in propylene glycol, 1,2-dihydroxybutane and 1,3-dihydroxypropane, read-out: solubility) was < 5000 µg/mL. The solubility ([2]; propylene glycol, butanediol, propanediol, same solvents, short-term (0.5-1 hour) warming (60-80°C) with vigorous stirring, read-out: solubility) was ~10000 µg/mL, the “physical stability of solution on cold storage” value ([2]; stored at 4°C to -20°C, seeding with crystalline doxorubicin HCl does not affect crystallization) was “remains in solution” and the potency loss ([2]; upon short-term (0.5-1 hour) warming (60-80°C) in propylene glycol, 1,2-dihydroxybutane, 1,3-dihydroxypropane) was “no potency loss”. For the same molecule, the solubility ([2]; various organic solvents, with heating, polyethylene glycols, ethanol, benzyl alcohol, dimethylisosorbide, ethyl lactate, Solketol, Cremophors, Pluronics, read-out: Solubilities) was < 5000 µg/mL, the stable ([3]; commercial preservative-free ready-to-use aqueous solution, 4°C, manufacturer) was 18 months and the “undesirable and potentially toxic degradation products” value ([3]; commercial ready-to-use aqueous solution, at the end of 18 months at 4°C, 788400 min) was “up to 10%”. The remains stable ([3]; reconstituted solution in 0.9% NaCl solution, room temperature or 5°C, Ketcyhum, et al.) was “seven”.
For Cc1c(C)c2c(c(C)c1O)CCC(C)(CCCC(C)CCCC(C)CCCC(C)C)O2 (stereo not drawn) [α-tocopherol], the “stabilization” value [1] was “resulted in the desired stability”.
